Laboratory results taken from patent US11691949B2, “Quinoline sulfonamide compounds and their use as antibacterial agents” (OTAGO INNOVATION LIMITED, priority 2017, dated 2023).
Converted amounts (≈) assume the structure as drawn. Where a name gives a salt, the structure may show the parent alone. Read-outs that look alike come from different tables or passages of the source.

Assays:
Format in all cases: cell-based
S. uberis ATCC 19436 = assay: MIC by broth microdilution, S. uberis; conditions: Streptococcus uberis
In short: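 This broth microdilution assay used S. uberis ATCC 19436 in Todd Hewitt Broth, with zinc sulphate heptahydrate added where required to a final 50 μM. Inhibitor concentration ranges came from two-fold serial dilutions in 96-well flat bottom plates at 200 μl. Approximately 5×10^5 cfu/mL cells were incubated for 24 h at 37° C. and 200 rpm. Wells were then read at OD600 on a Varioskan Flash reader.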

S. aureus ATCC 6538 = assay: MIC by broth microdilution, S. aureus; conditions: Staphylococcus aureus
In short: (§1)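 Overnight cultures diluted to ~5×10^5 cfu/mL final; S. aureus in TSB and CAMHB, E. coli in LB and CAMHB, zinc sulphate to 50 μM final as required; two-fold serial dilutions. MIC = lowest concentration with no growth by OD600 after 24 h, 37° C, 200 rpm. MBC by Miles-Misra drop-plate viability count.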

E. coli ATCC 10596 = assay: MIC by broth microdilution, E. coli; conditions: Escherichia coli
In short: as §1

[1] = ATCC19436, read-out: S. uberis ATCC 19436 MIC, No Zinc
[2] = ATCC19436, read-out: S. uberis ATCC 19436 MIC, Zinc (50 μM)
[3] = ATCC6538, read-out: S. aureus ATCC 6538 MIC, No Zinc
[4] = ATCC6538, read-out: S. aureus ATCC 6538 MIC, Zinc (50 μM)
[5] = ATCC 10536 / ATCC 10596, read-out: E. coli ATCC 10536 MIC, No Zinc
[6] = ATCC 10536 / ATCC 10596, read-out: E. coli ATCC 10536 MIC, Zinc (50 μM)
[7] = ATCC19436, No Zinc, read-out: S. uberis ATCC 19436 MIC
[8] = ATCC19436, Zinc (50 μM), read-out: S. uberis ATCC 19436 MIC
[9] = ATCC6538, No Zinc, read-out: S. aureus ATCC 6538 MIC
[10] = ATCC6538, Zinc (50 μM), read-out: S. aureus ATCC 6538 MIC
[11] = ATCC 10536 / ATCC 10596, No Zinc, read-out: E. coli ATCC 10536 MIC
[12] = ATCC 10536 / ATCC 10596, Zinc (50 μM), read-out: E. coli ATCC 10536 MIC

SMILES | MIC (S. uberis ATCC 19436; [1]) [µg/mL] | MIC (S. uberis ATCC 19436; [2]) [µg/mL] | MIC (S. aureus ATCC 6538; [3]) [µg/mL] | MIC (S. aureus ATCC 6538; [4]) [µg/mL] | MIC (E. coli ATCC 10596; [5]) [µg/mL] | MIC (E. coli ATCC 10596; [6]) [µg/mL] | MIC (S. uberis ATCC 19436; [7]) [µg/mL] | MIC (S. uberis ATCC 19436; [8]) [µg/mL] | MIC (S. aureus ATCC 6538; [9]) [µg/mL] | MIC (S. aureus ATCC 6538; [10]) [µg/mL] | MIC (E. coli ATCC 10596; [11]) [µg/mL] | MIC (E. coli ATCC 10596; [12]) [µg/mL]
O=C(CNCc1ccc2cccc(NS(=O)(=O)c3ccc(C(F)(F)F)cc3)c2n1)NO [ZDR267, N-hydroxy-2-(((8-((4-(trifluoromethyl)phenyl)sulfonamido)quinolin-2-yl)methyl)amino)acetamide trifluoroacetate] | 256 | 256 | 256 | 128 | > 256 | > 256 | – | – | – | – | – | –
CN(C)Cc1ccc2cccc(NS(=O)(=O)Cc3ccc(Cl)nc3)c2n1 [ZDR505, 1-(6-Chloropyridin-3-yl)-N-(2-((dimethylamino)methyl)quinolin-8-yl)methanesulfonamide] | – | – | – | – | – | – | > 256 | 0.25 (≈ 0.64 µM) | > 256 | 256 (≈ 655 µM) | > 256 | > 256
COCCOCCNCc1ccc2cccc(NS(=O)(=O)c3ccc(C(F)(F)F)cc3)c2n1 [ZDR131, N-(2-(((2-(2-Methoxyethoxy)ethyl)amino)methyl)quinolin-8-yl)-4-(trifluoromethyl)benzenesulfonamide] | – | – | – | – | – | – | 64 (≈ 132 µM) | 1 (≈ 2.07 µM) | 64 (≈ 132 µM) | 128 (≈ 265 µM) | 256 (≈ 529 µM) | 256 (≈ 529 µM)
CC(=O)NCc1ccc2cccc(NS(=O)(=O)c3ccc(C(F)(F)F)cc3)c2n1 [ZDR185, N-((8-((4-(Trifluoromethyl)phenyl)sulfonamido)quinolin-2-yl)methyl)acetamide] | – | – | – | – | – | – | > 256 | 0.125 (≈ 0.295 µM) | 256 (≈ 605 µM) | 32 (≈ 75.6 µM) | > 256 | > 256
CN(C)Cc1ccc2cccc(NS(=O)(=O)C3CCNCC3)c2n1 [ZDR263, N-(2-((Dimethylamino)methyl)quinolin-8-yl)piperidine-4-sulfonamide di-trifluoroacetate] | > 256 | 256 (≈ 735 µM) | > 256 | > 256 | > 256 | > 256 | – | – | – | – | – | –
CN(C)Cc1ccc2cccc(NS(=O)(=O)c3ccc(N)cc3)c2n1 [ZDR160, 4-Amino-N-(2-((dimethylamino)methyl)quinolin-8-yl)benzenesulfonamide] | – | – | – | – | – | – | 256 (≈ 718 µM) | > 256 | > 256 | > 256 | > 256 | > 256
O=C(O)CNCc1ccc2cccc(NS(=O)(=O)c3ccc(C(F)(F)F)cc3)c2n1 [ZDR043, N-(2-(((Carboxymethyl)amino)methyl)quinolin-8-yl)-4-(trifluoromethyl)benzenesulfonamide trifluoroacetate] | > 256 | > 256 | > 256 | > 256 | > 256 | > 256 | – | – | – | – | – | –
CN(C)Cc1ccc2cccc(NS(=O)(=O)Cc3ccccc3)c2n1 [ZDR317, N-(2-((Dimethylamino)methyl)quinolin-8-yl)-1-phenylmethanesulfonamide] | – | – | – | – | – | – | 256 (≈ 720 µM) | 0.25 (≈ 0.703 µM) | > 256 | 128 (≈ 360 µM) | > 256 | > 256
NC(=S)N/N=C/c1ccc2cccc(NS(=O)(=O)c3ccc(C(F)(F)F)cc3)c2n1 [ZDR046, (E)-2-((8-((4-(Trifluoromethyl)phenyl)sulfonamido)quinolin-2-yl)methylene)hydrazine-1-carbothioamide] | – | – | – | – | – | – | 4 (≈ 8.82 µM) | 1 (≈ 2.21 µM) | 4 (≈ 8.82 µM) | 4 (≈ 8.82 µM) | > 256 | > 256
CN(C)Cc1ccc2cccc(NS(=O)(=O)c3ccc(F)c(F)c3)c2n1 [ZDR338, N-(2-((Dimethylamino)methyl)quinolin-8-yl)-3,4-difluorobenzenesulfonamide] | – | – | – | – | – | – | 128 (≈ 339 µM) | 0.0625 (≈ 0.166 µM) | > 256 | > 256 | > 256 | > 256
CN(C)Cc1ccc2cccc(NS(=O)(=O)c3ccc(S(N)(=O)=O)cc3)c2n1 [ZDR154, N-(2-((Dimethylamino)methyl)quinolin-8-yl)benzene-1,4-disulfonamide] | – | – | – | – | – | – | > 256 | 16 (≈ 38 µM) | > 256 | > 256 | > 256 | > 256
CCNCc1ccc2cccc(NS(=O)(=O)c3ccc(C(F)(F)F)cc3)c2n1 [ZDR025, N-(2-((Ethylamino)methyl)quinolin-8-yl)-4-(trifluoromethyl)-benzenesulfonamide] | – | – | – | – | – | – | 64 (≈ 156 µM) | 0.125 (≈ 0.305 µM) | 32 (≈ 78.2 µM) | > 256 | 256 (≈ 625 µM) | ≥ 256
CN(C)Cc1ccc2cccc(NS(=O)(=O)c3ccc(F)cc3)c2n1 [ZDR065, N-(2-((Dimethylamino)methyl)quinolin-8-yl)-4-fluorobenzenesulfonamide] | – | – | – | – | – | – | > 256 | 0.125 (≈ 0.348 µM) | 256 (≈ 712 µM) | 256 (≈ 712 µM) | > 256 | > 256
CN(Cc1ccc2cccc(NS(=O)(=O)c3ccc(C(F)(F)F)cc3)c2n1)Cc1ccc2cccc(NS(=O)(=O)c3ccc(C(F)(F)F)cc3)c2n1 [ZDR037, N,N′-(((Methylazanediyl)bis(methylene))bis(quinoline-2,8-diyl))bis(4-(trifluoromethyl)benzenesulfonamide)] | – | – | – | – | – | – | > 256 | 2 (≈ 2.63 µM) | > 256 | > 256 | > 256 | > 256
CN(C)Cc1ccc2cccc(NS(=O)(=O)Cc3ccc(C(F)(F)F)cc3)c2n1 [ZDR320, N-(2-((Dimethylamino)methyl)quinolin-8-yl)-1-(4-(trifluoromethyl)phenyl)methanesulfonamide] | – | – | – | – | – | – | 256 (≈ 605 µM) | 0.0625 (≈ 0.148 µM) | > 256 | 128 (≈ 302 µM) | > 256 | > 256
Cc1ccc2cccc(NS(=O)(=O)c3ccc(C(F)(F)F)cc3)c2n1 [ZDR018, N-(2-Methylquinolin-8-yl)-4-(trifluoromethyl)benzenesulfonamide] | – | – | – | – | – | – | > 256 | 0.125 (≈ 0.341 µM) | > 256 | > 256 | > 256 | > 256
CN(C)Cc1ccc2cccc(NS(=O)(=O)c3ccc(OC(F)F)cc3)c2n1 [ZDR306, 4-(Difluoromethoxy)-N-(2-((dimethylamino)methyl)quinolin-8-yl)benzenesulfonamide] | – | – | – | – | – | – | 128 (≈ 314 µM) | 0.125 (≈ 0.307 µM) | 128 (≈ 314 µM) | 128 (≈ 314 µM) | > 256 | > 256
O=S(=O)(Nc1cccc2ccc(CNCc3cccs3)nc12)c1ccc(C(F)(F)F)cc1 [ZDR107, N-(2-(((Thiophen-2-ylmethyl)amino)methyl)quinolin-8-yl)-4-(trifluoromethyl)benzenesulfonamide] | – | – | – | – | – | – | 64 (≈ 134 µM) | 0.125 (≈ 0.262 µM) | > 256 | 64 (≈ 134 µM) | > 256 | > 256
CN(C)Cc1ccc2cccc(NS(=O)(=O)CCC(F)(F)F)c2n1 [ZDR316, N-(2-((Dimethylamino)methyl)quinolin-8-yl)-3,3,3-trifluoropropane-1-sulfonamide] | – | – | – | – | – | – | > 256 | 0.125 (≈ 0.346 µM) | > 256 | > 256 | > 256 | > 256
CC(=O)Nc1ccc(S(=O)(=O)Nc2cccc3ccc(CN(C)C)nc23)cc1 [ZDR072, N-(4-(N-(2-((Dimethylamino)methyl)quinolin-8-yl)sulfamoyl)phenyl)acetamide] | – | – | – | – | – | – | 256 (≈ 642 µM) | 32 (≈ 80.3 µM) | > 256 | > 256 | > 256 | > 256
